Reference: publication PMC9154192 (PLoS Biology, 2022)
Values joined by “and” are separate entries in the source; they are usually repeats but may differ in a detail not shown here. Equal values may be shown once. Read-outs that look alike come from different tables or passages of the source.

What was measured:
[1] = tested on: XDR M. tuberculosis (KMRC 00203–00197); format: cell-based, Mycobacterium tuberculosis; conditions: for log reduction (CFU): 7 days
[2] = tested on: XDR M. tuberculosis; format: cell-based, Mycobacterium tuberculosis
[3] = tested on: M. tuberculosis H37Rv; experiment: Luminescence-based microbial cell viability assay; set-up: species or system Mycobacterium tuberculosis; conditions: for RLU/50ul (replicates1-3), single values / RLU/ml (×100) / RLU/50ul (average): Fig 2C
[4] = tested on: XDR M. tuberculosis; experiment: Luminescence-based microbial cell viability assay; set-up: species or system Mycobacterium tuberculosis
[5] = tested on: M. tuberculosis H37Rv; format: cell-based, Mycobacterium tuberculosis; conditions: for CFU/ml (average) / CFU/ml, single values / Intracellular M. tuberculosis, % (Drug Free = 100.0): Fig 3A, H37Rv
[6] = tested on: XDR M. tuberculosis; format: cell-based, Mycobacterium tuberculosis; remark: listed apart in the source
[7] = tested on: M. tuberculosis H37Rv; format: in vivo, BALB/c mice; conditions: for Efficacy in BALB/C mouse model of pulmonary tuberculosis, Average: Fig 4A
[8] = in vitro; format: cell-based; conditions: human
Description: A549 human pulmonary epithelial cells (KCLB 10185), human embryonic kidney (HEK) 293 cells (KCLB 21573), human THP-1 leukemia cells (KCLB 40202), human neuroblastoma SH-SY5Y cells (KCLB 22266), Murine Raw 264.7 macrophages (KCLB 40071), and L929 murine fibroblasts (KCLB 10001) were purchased from the KCLB (Seoul, Korea). Cytotoxicity testing was performed using the MTT assay and the WST-1 cell viability assay as previously described.

[9] = format: in vivo, Crl:CD SD rats; conditions: single oral dose up to 2,000 mg/kg, SD rats, 2 weeks
Description: Toxicity studies were conducted at Biotoxtech (Korea) under review and approval from IACUC (170842, 180144, 170889) of Biotoxtech. All animals used in the toxicity test were purchased from OrientBio (Korea).
For acute toxicity study with a single oral administration, 6-week-old Crl:CD SD rats were used. For PP1S, a total of 8 groups (n = 4 rats/group) were used (0, 500, 1,000, and 2,000 mg/kg for females and males, respectively). For PP2S, a total of 4 groups (n = 5 rats/group) were used (0 and 2,000 mg/kg for females and males, respectively). […] Corn oil (Sigma, USA) was used as the vehicle. Control animals were treated only with the same volume of the vehicle.

[10] = Acute oral toxicity test in mice; format: in vivo, BALB/c mice; conditions: single oral, 5 mice; for Deaths of mice, Days after dosing 0: day 0; for Deaths of mice, Days after dosing 1: day 1; for Deaths of mice, Days after dosing 2: day 2; for Deaths of mice, Days after dosing 3: day 3; for Deaths of mice, Days after dosing 4: day 4; for Deaths of mice, Days after dosing 5: day 5; for Deaths of mice, Days after dosing 6: day 6; for Deaths of mice, Days after dosing 7: day 7; for Deaths of mice, Days after dosing 8: day 8; for Deaths of mice, Days after dosing 9: day 9; for Deaths of mice, Days after dosing 10: day 10; for Deaths of mice, Days after dosing 11: day 11; for Deaths of mice, Days after dosing 12: day 12; for Deaths of mice, Days after dosing 13: day 13; for Deaths of mice, Days after dosing 14: day 14
Description: This experiment was conducted in a toxicity test at Soonchunhyang University's Animal Biological Safety Level 2 (ABSL-2) facility. The study protocol was reviewed and approved by Soonchunhyang University Animal Ethics Committee. Six-week-old female BALB/c were purchased from Koatech (Pyeongtaek, Korea) and five mice per group were tested. Drugs were orally administered once using a zonde and observed for two weeks. Corn oil (Sigma, USA) was used as the vehicle.

COC(=O)[C@@H]1CCC(=O)N1Cc1cc2ccc(OC)cc2c2cc(OC)c(OC)cc12 [PP1S, (S)-N-[(2,3,6-Trimethoxy-10-phenanthryl)methyl]-pyroglutamic acid methyl ester]
CFU (replicates1-3), single values [1]: 9800 CFU and 11000 CFU and 9100 CFU and 4200 CFU and 13900 CFU and 20700 CFU and 20100 CFU and 12600 CFU and 16500 CFU and 28000 CFU and 112000 CFU and 92700 CFU and 90100 CFU and 36800 CFU and 38700 CFU and 24400 CFU and 24700 CFU and 22500 CFU
log reduction (CFU) ([1]; at 0.8 μg/ml): 0.8
log reduction (CFU) ([1]; at 1.6 μg/ml): 1.3
RFU/200 μl (replicates1-3), single values [2]: 28550 RFU/200 μl (2×) and 31600 RFU/200 μl and 31980 RFU/200 μl and 30880 RFU/200 μl and 29180 RFU/200 μl and 29520 RFU/200 μl and 28730 RFU/200 μl and 28570 RFU/200 μl and 47010 RFU/200 μl and 47100 RFU/200 μl and 48600 RFU/200 μl and 48210 RFU/200 μl and 50840 RFU/200 μl and 43460 RFU/200 μl and 43510 RFU/200 μl and 43540 RFU/200 μl and 47050 RFU/200 μl and 50580 RFU/200 μl and 50770 RFU/200 μl and 53600 RFU/200 μl and 53640 RFU/200 μl and 54810 RFU/200 μl and 45790 RFU/200 μl and 45690 RFU/200 μl and 45900 RFU/200 μl and 50680 RFU/200 μl
RFU/ml (×104) [2]: 14.9 RFU/ml (×104) and 23.3 RFU/ml (×104) and 25.1 RFU/ml (×104)
concentration with significant antitubercular effect [2]: 1.56 µg/mL and 0.78 µg/mL
RLU/50ul (replicates1-3), single values ([3]; drug conc. 0.39): 1910 RLU/50ul and 1870 RLU/50ul and 3370 RLU/50ul and 3410 RLU/50ul and 3790 RLU/50ul and 1810 RLU/50ul and 1790 RLU/50ul and 1970 RLU/50ul and 1850 RLU/50ul
RLU/ml (×100) ([3]; drug conc. 0.39): 483.8 RLU/ml (×100)
RLU/50ul (average) ([3]; drug conc. 0.39, average of each replicate set): 3523 RLU/50ul and 1857 RLU/50ul and 1877 RLU/50ul
RLU/50ul (replicates1-3), single values ([3]; drug conc. 0.78): 1380 RLU/50ul and 1580 RLU/50ul and 2750 RLU/50ul and 2760 RLU/50ul and 3450 RLU/50ul and 2020 RLU/50ul and 2180 RLU/50ul and 1970 RLU/50ul and 1410 RLU/50ul
RLU/ml (×100) ([3]; drug conc. 0.78): 433.3 RLU/ml (×100)
RLU/50ul (average) ([3]; drug conc. 0.78, average of each replicate set): 2987 RLU/50ul and 2057 RLU/50ul and 1457 RLU/50ul
RLU/50ul (replicates1-3), single values ([3]; drug conc. 1.56): 750 RLU/50ul and 850 RLU/50ul and 1460 RLU/50ul and 1290 RLU/50ul and 960 RLU/50ul and 1050 RLU/50ul and 1110 RLU/50ul and 1070 RLU/50ul and 790 RLU/50ul
RLU/ml (×100) ([3]; drug conc. 1.56): 207.3 RLU/ml (×100)
RLU/50ul (average) ([3]; drug conc. 1.56, average of each replicate set): 1237 RLU/50ul and 1077 RLU/50ul and 797 RLU/50ul
concentration with significant antitubercular effect ([3]; luminescence-based assay): 1.56 µg/mL
RLU/50ul (replicates1-3), single values [4]: 370 RLU/50ul (2×) and 430 RLU/50ul and 270 RLU/50ul and 260 RLU/50ul and 320 RLU/50ul and 360 RLU/50ul and 340 RLU/50ul and 390 RLU/50ul and 420 RLU/50ul and 450 RLU/50ul and 590 RLU/50ul and 610 RLU/50ul and 670 RLU/50ul and 570 RLU/50ul and 550 RLU/50ul (2×) and 460 RLU/50ul and 440 RLU/50ul and 630 RLU/50ul and 790 RLU/50ul and 540 RLU/50ul and 580 RLU/50ul and 840 RLU/50ul and 860 RLU/50ul and 750 RLU/50ul and 640 RLU/50ul
RLU/ml (×100) [4]: 69.1 RLU/ml (×100) and 105.8 RLU/ml (×100) and 137.3 RLU/ml (×100)
concentration with significant antitubercular effect [4]: 1.56 µg/mL and 0.78 µg/mL
CFU/ml (average) ([5]; drug conc. 1.6): 26333 CFU/ml
CFU/ml, single values ([5]; drug conc. 1.6): 26400 CFU/ml and 26700 CFU/ml and 25900 CFU/ml
Intracellular M. tuberculosis, % (Drug Free = 100.0) ([5]; drug conc. 1.6): 78.3%
CFU/ml (average) ([5]; drug conc. 3.1): 21190 CFU/ml
CFU/ml, single values ([5]; drug conc. 3.1): 20900 CFU/ml and 22200 CFU/ml and 20470 CFU/ml
Intracellular M. tuberculosis, % (Drug Free = 100.0) ([5]; drug conc. 3.1): 63.0%
CFU/ml (average) ([5]; drug conc. 6.3): 15203 CFU/ml
CFU/ml, single values ([5]; drug conc. 6.3): 15200 CFU/ml and 14100 CFU/ml and 16310 CFU/ml
Intracellular M. tuberculosis, % (Drug Free = 100.0) ([5]; drug conc. 6.3): 45.2%
CFU/ml (average) ([5]; drug conc. 12.5): 8003 CFU/ml
CFU/ml, single values ([5]; drug conc. 12.5): 8000 CFU/ml and 7500 CFU/ml and 8510 CFU/ml
Intracellular M. tuberculosis, % (Drug Free = 100.0) ([5]; drug conc. 12.5): 23.8%
CFU/ml (average) ([5]; drug conc. 25): 707 CFU/ml
Intracellular M. tuberculosis, % (Drug Free = 100.0) ([5]; drug conc. 25): 2.1%
growth of M. tuberculosis in macrophages (CFU) ([5]; H37Rv in Raw 264.7 cells, 3 days, concentration-dependent): significantly inhibited the growth
growth of M. tuberculosis in macrophages (CFU) [6]: significantly inhibited the growth
Efficacy in BALB/C mouse model of pulmonary tuberculosis, Average ([7]; group dose 15, 6 mice): 4150
Efficacy in BALB/C mouse model of pulmonary tuberculosis, Average ([7]; group dose 30, 6 mice): 2508
reduction of bacterial load in lungs compared to drug-free group ([7]; mouse, in vivo): more than 90%
granulomatous lesions in lung sections (HE staining) ([7]; mouse, in vivo, po): limited number of small granulomatous lesions
CC50 ([8]; A549): > 500 µg/mL
CC50 ([8]; HEK-293): > 500 µg/mL
CC50 ([8]; SH-SY5Y): > 500 µg/mL
CC50 ([8]; THP-1): > 500 µg/mL
change in body weight compared to control group [9]: no significant change
clinical symptoms and death [9]: not observed
Deaths of mice, Days after dosing 0 ([10]; Dose 500 mg/kg): 0
Deaths of mice, Days after dosing 1 ([10]; Dose 500 mg/kg): 0
Deaths of mice, Days after dosing 2 ([10]; Dose 500 mg/kg): 0
Deaths of mice, Days after dosing 3 ([10]; Dose 500 mg/kg): 0
Deaths of mice, Days after dosing 4 ([10]; Dose 500 mg/kg): 0
Deaths of mice, Days after dosing 5 ([10]; Dose 500 mg/kg): 0
Deaths of mice, Days after dosing 6 ([10]; Dose 500 mg/kg): 0
Deaths of mice, Days after dosing 7 ([10]; Dose 500 mg/kg): 0
Deaths of mice, Days after dosing 8 ([10]; Dose 500 mg/kg): 0
Deaths of mice, Days after dosing 9 ([10]; Dose 500 mg/kg): 0
Deaths of mice, Days after dosing 10 ([10]; Dose 500 mg/kg): 0
Deaths of mice, Days after dosing 11 ([10]; Dose 500 mg/kg): 0
Deaths of mice, Days after dosing 12 ([10]; Dose 500 mg/kg): 0
Deaths of mice, Days after dosing 13 ([10]; Dose 500 mg/kg): 0
Deaths of mice, Days after dosing 14 ([10]; Dose 500 mg/kg): 0
Deaths of mice, Days after dosing 0 ([10]; Dose 1000 mg/kg): 0
Deaths of mice, Days after dosing 1 ([10]; Dose 1000 mg/kg): 0
Deaths of mice, Days after dosing 2 ([10]; Dose 1000 mg/kg): 0
Deaths of mice, Days after dosing 3 ([10]; Dose 1000 mg/kg): 0
Deaths of mice, Days after dosing 4 ([10]; Dose 1000 mg/kg): 0
Deaths of mice, Days after dosing 5 ([10]; Dose 1000 mg/kg): 0
Deaths of mice, Days after dosing 6 ([10]; Dose 1000 mg/kg): 0
Deaths of mice, Days after dosing 7 ([10]; Dose 1000 mg/kg): 0
Deaths of mice, Days after dosing 8 ([10]; Dose 1000 mg/kg): 0
Deaths of mice, Days after dosing 9 ([10]; Dose 1000 mg/kg): 0
Deaths of mice, Days after dosing 10 ([10]; Dose 1000 mg/kg): 0
Deaths of mice, Days after dosing 11 ([10]; Dose 1000 mg/kg): 0
Deaths of mice, Days after dosing 12 ([10]; Dose 1000 mg/kg): 0
Deaths of mice, Days after dosing 13 ([10]; Dose 1000 mg/kg): 0
Deaths of mice, Days after dosing 14 ([10]; Dose 1000 mg/kg): 0
Deaths of mice, Days after dosing 0 ([10]; Dose 2000 mg/kg): 0
Deaths of mice, Days after dosing 1 ([10]; Dose 2000 mg/kg): 0
Deaths of mice, Days after dosing 2 ([10]; Dose 2000 mg/kg): 0
Deaths of mice, Days after dosing 3 ([10]; Dose 2000 mg/kg): 0
Deaths of mice, Days after dosing 4 ([10]; Dose 2000 mg/kg): 0
Deaths of mice, Days after dosing 5 ([10]; Dose 2000 mg/kg): 0
Deaths of mice, Days after dosing 6 ([10]; Dose 2000 mg/kg): 0
Deaths of mice, Days after dosing 7 ([10]; Dose 2000 mg/kg): 0
Deaths of mice, Days after dosing 8 ([10]; Dose 2000 mg/kg): 0
Deaths of mice, Days after dosing 9 ([10]; Dose 2000 mg/kg): 0
Deaths of mice, Days after dosing 10 ([10]; Dose 2000 mg/kg): 0
Deaths of mice, Days after dosing 11 ([10]; Dose 2000 mg/kg): 0
Deaths of mice, Days after dosing 12 ([10]; Dose 2000 mg/kg): 0
Deaths of mice, Days after dosing 13 ([10]; Dose 2000 mg/kg): 0
Deaths of mice, Days after dosing 14 ([10]; Dose 2000 mg/kg): 0
